Like-named read-outs stand apart in the source and are kept apart here.
Tests used:
[1] = test system: HCV replicon 1AY93H; experiment: Cell-based HCV Replicon Assay A, replicon 1AY93H
Procedure: (§1) To measure cell-based anti-HCV activity of compounds of the present invention, two complimentary assays were employed using various replicons. In the first assay (“Replicon Assay A”), replicon cells were seeded at 2000 cells/well in 384-well 384-well flat bottom tissue culture treated clear bottom plate (Corning 3707) in the presence of the test compound. Various concentrations of test compound, typically in 10 serial dilutions, were added to the assay mixture, with the starting concentration ranging from 333.3 nM to […]. The final concentration of DMSO was 0.5%. Fetal bovine serum was 5%, in the assay media. Cells were harvested on day 3 by removing media and washing the cells with a suitable wash buffer. The cells are lysed with the addition of 1× Qiagen lysis buffer (Cat #1062731). The replicon RNA level was measured using real time PCR (TaqMan® EZ RT-PCR, Applied Biosystems 403028) with the following primers and probes: […]
(§2) Cyclophilin RNA was used as endogenous control and was amplified in the same reaction as NS5B (multiplex PCR). The real-time RT-PCR reactions were run on ABI PRISM 7900HT Sequence Detection System using the following program: 50° C. for 2 minutes, 60° C. for 30 minutes, 95° C. for 5 minutes, 40 cycles of 94° C. for 20 sec, 55° C. for 1 minutes.
(§3) The amount of HCV replicon RNA per cell is quantified using a linear regression curve for a known nanogram (ng) amount of HCV replicon total RNA. This is established by plotting the Cycle Threshold values (Ct) from the Neo probe and primer set versus the log (ng) for each HCV replicon total RNA standard. The amount of HCV RNA for each replicon sample is calculated by taking the sample's Ct value, minus the line intercept, divided by the slope of the line. Similarly, the amount of Cyclophilin mRNA per cell is also quantified using a linear regression curve for a known nanogram (ng) amount of HCV replicon total RNA. Again, this is established by plotting the Cycle Threshold values (Ct) from the Cyclophilin probe and primer set versus the log (ng) for each HCV replicon total RNA standard.
(§4) Data was obtained for various compounds of the present invention using the methods described in the Example above, and is presented in the table immediately below. Data for replicons 1A, 1AY93H and 2B were obtained using Replicon Assay A and data for replicons 1AQ30D and 1B were obtained using Replicon Assay B.

[2] = test system: HCV replicon 1A; experiment: Cell-based HCV Replicon Assay A, replicon 1A
Procedure: as §1, §2, §3, §4

[3] = test system: HCV replicon 2B; experiment: Cell-based HCV Replicon Assay A, replicon 2B
Procedure: as §1, §2, §3, §4

[4] = Hepatitis C virus, read-out: 1A Y93H IC50 (nM), replicon 1AY93H
[5] = Hepatitis C virus, read-out: 2B IC50 (nM), replicon 2B
[6] = read-out: 1A Y93H IC50, replicon 1AY93H

SMILES	IC50 [1, 4]	IC50 ([2]; Hepatitis C virus)	IC50 [3, 5]	IC50 [1, 6]	IC50 ([3]; read-out: 2B IC50, replicon 2B)	IC50 [2]	IC50 ([1]; replicon 1AY93H, read-out: 1A Y93H IC50)
COC(=O)N[C@H](C(=O)C1CCC[C@H]1c1ncc(-c2ccc3c(c2)cc2n3C(c3cnc(CC(C)C)s3)Oc3cc(-c4cnc([C@@H]5CCCN5C(=O)[C@@H](NC(=O)OC)C(C)C)[nH]4)cc(F)c3-2)[nH]1)C(C)C (mixture of isomers) [Compound 403]	0.016 nM	0.0064 nM	0.142 nM				
CCN(CC)c1ncc(C2Oc3cc(-c4cnc([C@@H]5CCCN5C(=O)[C@@H](NC(=O)OC)C(C)C)[nH]4)cc(F)c3-c3cc4cc(-c5cnc([C@@H]6CCCN6C(=O)[C@@H](NC(=O)OC)C(C)C)[nH]5)ccc4n32)s1 (mixture of isomers) [Compound 404]	0.0386 nM	0.012 nM	0.206 nM				
COC(=O)N[C@H](C(=O)N1CCC[C@H]1c1ncc(-c2cc(F)c3c(c2)OC(c2cn4ccnc4s2)n2c-3cc3cc(-c4cnc([C@@H]5CCCN5C(=O)[C@@H](NC(=O)OC)C(C)C)[nH]4)ccc32)[nH]1)C(C)C (mixture of isomers) [Compound 417]	0.996 nM	0.0031 nM	0.453 nM				
COC(=O)N[C@H](C(=O)N1CCC[C@H]1c1ncc(-c2cc(F)c3c(c2)OC(c2cnc(-c4cnn(C)c4)s2)n2c-3cc3cc(-c4cnc([C@@H]5CCCN5C(=O)[C@@H](NC(=O)OC)C(C)C)[nH]4)ccc32)[nH]1)C(C)C (mixture of isomers) [Compound 425]	0.534 nM	0.0069 nM	1.78 nM				
COC(=O)N[C@H](C(=O)N1CCC[C@H]1c1ncc(-c2cc(F)c3c(c2)OC(c2ncc(C4CC4)s2)n2c-3cc3cc(-c4cnc([C@@H]5CCCN5C(=O)[C@@H](NC(=O)OC)C(C)C)[nH]4)ccc32)[nH]1)C(C)C (single isomer, unassigned) [Compound 7]		0.0014 nM		4.23 nM	2.14 nM		
COC(=O)N[C@H](C(=O)N1CCC[C@H]1c1ncc(-c2cc(F)c3c(c2)OC(c2ncc(C4CC4)s2)n2c-3cc3cc(-c4cnc([C@@H]5CCCN5C(=O)[C@@H](NC(=O)OC)C(C)C)[nH]4)ccc32)[nH]1)C(C)C (single isomer, unassigned) [Compound 8]				0.15 nM	0.14 nM	0.0017 nM	
COC(=O)N[C@H](C(=O)N1CCC[C@H]1c1ncc(-c2cc(F)c3c(c2)OC(c2cnc(C4CC4)s2)n2c-3cc3cc(-c4cnc([C@@H]5CCCN5C(=O)[C@@H](NC(=O)OC)C(C)C)[nH]4)ccc32)[nH]1)C(C)C (single isomer, unassigned) [Compound 9]		0.0016 nM		0.86 nM	1.56 nM		
COC(=O)N[C@H](C(=O)N1CCC[C@H]1c1ncc(-c2cc(F)c3c(c2)OC(c2cnc(OC)s2)n2c-3cc3cc(-c4cnc([C@@H]5CCCN5C(=O)[C@@H](NC(=O)OC)C(C)C)[nH]4)ccc32)[nH]1)C(C)C (single isomer, unassigned) [Compound 13]		0.0011 nM		0.621 nM	0.446 nM		
COC(=O)N[C@H](C(=O)N1CCC[C@H]1c1ncc(-c2cc(F)c3c(c2)OC(c2cnc(C4CCCC4)s2)n2c-3cc3cc(-c4cnc([C@@H]5CCCN5C(=O)[C@@H](NC(=O)OC)C(C)C)[nH]4)ccc32)[nH]1)C(C)C (single isomer, unassigned) [Compound 26]				0.126 nM	0.449 nM		
COC(=O)NC(C(=O)N1CCC[C@H]1c1ncc(-c2ccc3c(c2)cc2n3C(c3cnc(C)s3)Oc3cc(-c4cnc([C@@H]5CCCN5C(=O)[C@@H](NC(=O)OC)C(C)C)[nH]4)cc(F)c3-2)[nH]1)C1C[C@@H](C)O[C@@H](C)C1 (single isomer, unassigned) [Compound 29]		0.002 nM		1.09 nM	0.192 nM		
COC(=O)N[C@H](C(=O)N1CCC[C@H]1c1ncc(-c2cc(F)c3c(c2)OC(c2cnc(-c4ccc(F)cc4)s2)n2c-3cc3cc(-c4cnc([C@@H]5CCCN5C(=O)[C@@H](NC(=O)OC)C(C)C)[nH]4)ccc32)[nH]1)C(C)C (single isomer, unassigned) [Compound 32]				0.344 nM	0.231 nM	0.0012 nM	
CCc1ncc(C2Oc3cc(-c4cnc([C@@H]5CCCN5C(=O)[C@@H](NC(=O)OC)C(C)C)[nH]4)cc(F)c3-c3cc4cc(-c5cnc([C@@H]6CCCN6C(=O)C(NC(=O)OC)C6C[C@@H](C)O[C@@H](C)C6)[nH]5)ccc4n32)s1 (single isomer, unassigned) [Compound 35]		0.0026 nM		0.161 nM	0.125 nM		
CCc1ncc(C2Oc3cc(-c4cnc([C@@H]5CCCN5C(=O)[C@@H](NC(=O)OC)C(C)C)[nH]4)cc(F)c3-c3cc4cc(-c5cnc([C@@H]6CCCN6C(=O)C(NC(=O)OC)C6CCOC(C)(C)C6)[nH]5)ccc4n32)s1 (single isomer, unassigned) [Compound 37]		0.0022 nM		0.257 nM	0.226 nM		
CCc1ncc(C2Oc3cc(-c4cnc([C@@H]5CCCN5C(=O)[C@@H](NC(=O)OC)C(C)C)[nH]4)cc(F)c3-c3cc4cc(-c5cnc([C@@H]6CCCN6C(=O)C(NC(=O)OC)C6CCOC(C)(C)C6)[nH]5)ccc4n32)s1 (single isomer, unassigned) [Compound 38]				0.204 nM		0.0029 nM	
CCc1ncc(C2Oc3cc(-c4cnc([C@@H]5CCCN5C(=O)[C@@H](NC(=O)OC)C(C)C)[nH]4)cc(F)c3-c3cc4cc(-c5cnc([C@@H]6CCCN6C(=O)C(NC(=O)OC)C6CCOC(C)(C)C6)[nH]5)ccc4n32)s1 (single isomer, unassigned) [Compound 39]				0.0112 nM	0.004 nM	0.0037 nM	
COC(=O)N[C@H](C(=O)N1CCC[C@H]1c1ncc(-c2cc(F)c3c(c2)OC(c2cnc(-c4ccc(Cl)cc4)s2)n2c-3cc3cc(-c4cnc([C@@H]5CCCN5C(=O)[C@@H](NC(=O)OC)C(C)C)[nH]4)ccc32)[nH]1)C(C)C (single isomer, unassigned) [Compound 54]				0.429 nM	0.248 nM	0.0013 nM	
COC(=O)NC(C(=O)N1CCC[C@H]1c1ncc(-c2ccc3c(c2)cc2n3C(c3cnc(C(C)C)s3)Oc3cc(-c4cnc([C@@H]5CCCN5C(=O)[C@@H](NC(=O)OC)C(C)C)[nH]4)cc(F)c3-2)[nH]1)C1C[C@@H](C)O[C@@H](C)C1 (single isomer, unassigned) [Compound 56]		0.0011 nM		0.285 nM	0.104 nM		
CCCc1ncc(C2Oc3cc(-c4cnc([C@@H]5CCCN5C(=O)[C@@H](NC(=O)OC)C(C)C)[nH]4)cc(F)c3-c3cc4cc(-c5cnc([C@@H]6CCCN6C(=O)C(NC(=O)OC)C6CCOC(C)(C)C6)[nH]5)ccc4n32)s1 (single isomer, unassigned) [Compound 58]		0.0026 nM		0.0086 nM	0.003 nM		
COC(=O)NC(C(=O)N1CCC[C@H]1c1ncc(-c2ccc3c(c2)cc2n3C(c3cnc(C(C)C)s3)Oc3cc(-c4cnc([C@@H]5CCCN5C(=O)[C@@H](NC(=O)OC)C(C)C)[nH]4)cc(F)c3-2)[nH]1)C1CCOC(C)(C)C1 (single isomer, unassigned) [Compound 62]	0.212 nM				0.427 nM	0.0018 nM	
COC(=O)NC(C(=O)N1[C@@H]2C[C@@H]2C[C@H]1c1ncc(-c2ccc3c(c2)cc2n3C(c3cnc(C(C)C)s3)Oc3cc(-c4cnc([C@@H]5CCCN5C(=O)[C@@H](NC(=O)OC)C(C)C)[nH]4)cc(F)c3-2)[nH]1)C1CCOC(C)(C)C1 (single isomer, unassigned) [Compound 69]				2.87 nM		0.0424 nM	
COC(=O)NC(C(=O)N1CCC[C@H]1c1ncc(-c2ccc3c(c2)cc2n3C(c3cnc(-c4ccc(F)cc4)s3)Oc3cc(-c4cnc([C@@H]5CCCN5C(=O)[C@@H](NC(=O)OC)C(C)C)[nH]4)cc(F)c3-2)[nH]1)C1C[C@@H](C)O[C@@H](C)C1 (single isomer, unassigned) [Compound 79]				0.0041 nM	0.002 nM		
CCc1nnc(C2Oc3cc(-c4cnc([C@@H]5CCCN5C(=O)[C@@H](NC(=O)OC)C(C)C)[nH]4)cc(F)c3-c3cc4cc(-c5cnc([C@@H]6CCCN6C(=O)C(NC(=O)OC)C(C)C)[nH]5)ccc4n32)s1 (single isomer, unassigned) [Compound 115]	0.79 nM					0.008 nM	
COC(=O)N[C@H](C(=O)N1CCC[C@H]1c1ncc(-c2cc(F)c3c(c2)OC(c2cnc(CC(C)(C)C)s2)n2c-3cc3cc(-c4cnc([C@@H]5CCCN5C(=O)[C@@H](NC(=O)OC)C(C)C)[nH]4)ccc32)[nH]1)C(C)C (single isomer, unassigned) [Compound 523]						0.0012 nM	0.13 nM
